Source: patent US6429317B1, “Indane derivatives for antipsychotic compositions” (priority 1996, dated 2002)

Target: T1, human m4 receptors (Homo sapiens, UniProt P08173)
T1 construct: expressed in transfected cells; host or cells: CHO K1
Experiment: Cyclic AMP accumulation in pertussis toxin-treated CHO m4 cells
Format: cell-based
Conditions: stimulation of cyclic AMP production in CHO-m4 cells, forskolin present
Experimental: Cyclic AMP Accumulation in Pertussis Toxin-Treated CHO m4 Cells.
CHO K1 cells transfected with human m4 receptors were grown to near confluency in T-150 flasks using Dulbecco's Modified Eagle Medium (DMEM) containing 10% fetal bovine serum. Cells were detached with 0.05% trypsin, […], and were suspended in medium containing 100 ng/ml pertussis toxin. Cells were plated at 30,000 cells per well into 96 well plates. Eighteen to twenty hours later the medium was removed and the cells were washed with serum-free medium. Attached cells were incubated at 37° C. for one hour after addition of […] of serum free DMEM containing 1 mM 3-isobutyl-1-methylxanthine and 1 mM forskolin plus or minus drugs being tested. Incubations were terminated with […] per well of serum free DMEM containing 0.3% triton-X-100. After stopping incubations the plates were allowed to sit for 20 minutes to extract cAMP and samples were then diluted 2.5-fold and were assayed using the scintillation proximity assay of Amersham (Arlington Heights, Ill).
Representative results from the M4 assay are as follows:
Stimulation of cyclic AMP production in CHO-m4cells.

T1 sequence (P08173 whole entry): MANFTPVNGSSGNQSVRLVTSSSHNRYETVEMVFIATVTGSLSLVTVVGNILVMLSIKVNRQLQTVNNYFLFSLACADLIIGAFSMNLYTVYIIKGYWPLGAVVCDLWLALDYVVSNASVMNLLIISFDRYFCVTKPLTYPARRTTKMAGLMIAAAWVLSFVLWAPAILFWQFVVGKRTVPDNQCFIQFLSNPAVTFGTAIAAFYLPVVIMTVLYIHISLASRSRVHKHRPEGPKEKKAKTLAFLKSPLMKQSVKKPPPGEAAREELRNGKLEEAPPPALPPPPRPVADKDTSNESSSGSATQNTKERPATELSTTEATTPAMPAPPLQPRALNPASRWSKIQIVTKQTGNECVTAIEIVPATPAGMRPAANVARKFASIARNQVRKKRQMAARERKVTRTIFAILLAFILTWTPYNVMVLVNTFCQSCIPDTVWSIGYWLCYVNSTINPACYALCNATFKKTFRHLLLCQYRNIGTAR

In the case of `CCCCc1ccc(C(=O)NC2c3cc(N=CN4CCCC4)ccc3CC2O)cc1` (stereo not drawn) [Compound 45], the “% Maximum Stimulation Compared to Oxotremorine-M” value is reported as less than 20%.
With `O=C(NC1c2cc(N=CN3CCCC3)ccc2CC1O)c1c(Cl)cc(Cl)cc1Cl` (stereo not drawn) [Compound 47] the “% Maximum Stimulation Compared to Oxotremorine-M” value was less than 20%.

First: O=C(NC1c2cc(N=CN3CCCC3)ccc2CC1O)c1c(Cl)cccc1Cl (stereo not drawn) [Compound 46]
Second: O=C(NC1c2cc(N=CN3CCCCC3)ccc2CC1O)c1cccc(Cl)c1Cl (stereo not drawn) [Compound 88]
The “% Maximum Stimulation Compared to Oxotremorine-M” value of the first is higher: 154% for the first, 52% for the second.

First: CN(C)C=Nc1ccc2c(c1)C(NC(=O)c1ccccc1)C(O)C2 (stereo not drawn) [Compound 57]
Second: CN(C)C=Nc1ccc2c(c1)C(NC(=O)c1ccc3ccccc3c1)C(O)C2 (stereo not drawn) [Compound 63]
The “% Maximum Stimulation Compared to Oxotremorine-M” value of the first is lower: 5% for the first, 13% for the second.

Going from `CN(C)C=Nc1ccc2c(c1)C(NC(=O)c1cc(Cl)cc(Cl)c1)C(O)C2` (stereo not drawn) [Compound 58] to `CN(C)C=Nc1ccc2c(c1)C(NC(=O)c1ccc(Cl)nc1)C(O)C2` (stereo not drawn) [Compound 74], the “% Maximum Stimulation Compared to Oxotremorine-M” value falls from 74% to 8%.

Compared with `CCCCOc1ccc(C(=O)NC2c3cc(N=CN(C)C)ccc3CC2O)cc1` (stereo not drawn) [Compound 59], `CCCCc1ccc(C(=O)NC2c3cc(N=CN(C)C)ccc3CC2O)cc1` (stereo not drawn) [Compound 70] is lower in “% Maximum Stimulation Compared to Oxotremorine-M” value: 22% for the first, 18% for the second.

Going from `CN(C)C=Nc1ccc2c(c1)C(NC(=O)c1cc(C(F)(F)F)cc(C(F)(F)F)c1)C(O)C2` (stereo not drawn) [Compound 60] to `CN(C)C=Nc1ccc2c(c1)C(NC(=O)c1cc(F)cc(C(F)(F)F)c1)C(O)C2` (stereo not drawn) [Compound 64], the “% Maximum Stimulation Compared to Oxotremorine-M” value falls from 100% to 52%.

First: CN(C)C=Nc1ccc2c(c1)C(NC(=O)c1cccc(C#N)c1)C(O)C2 (stereo not drawn) [Compound 61]
Second: CCc1ccc(C(=O)NC2c3cc(N=CN(C)C)ccc3CC2O)cc1 (stereo not drawn) [Compound 67]
The “% Maximum Stimulation Compared to Oxotremorine-M” value of the first is higher: 39% for the first, 7% for the second.

Going from `CN(C)C=Nc1ccc2c(c1)C(NC(=O)C1CCCC1)C(O)C2` (stereo not drawn) [Compound 62] to `CN(C)C=Nc1ccc2c(c1)C(NC(=O)C(F)(F)F)C(O)C2` (stereo not drawn) [Compound 66], the “% Maximum Stimulation Compared to Oxotremorine-M” value falls from 27% to 0%.

Going from `CN(C)C=Nc1ccc2c(c1)C(NC(=O)c1cc(F)c(F)c(F)c1)C(O)C2` (stereo not drawn) [Compound 65] to `CN(C)C=Nc1ccc2c(c1)C(NC(=O)c1ccc(C(F)(F)F)cc1)C(O)C2` (stereo not drawn) [Compound 75], the “% Maximum Stimulation Compared to Oxotremorine-M” value falls from 30% to 6%.

Going from `CN(C)C=Nc1ccc2c(c1)C(NC(=O)c1sccc1Cl)C(O)C2` (stereo not drawn) [Compound 68] to `CN(C)C=Nc1ccc2c(c1)C(NC(=O)c1cccnc1Cl)C(O)C2` (stereo not drawn) [Compound 73], the “% Maximum Stimulation Compared to Oxotremorine-M” value rises from 0% to 11%.

Going from `CN(C)C=Nc1ccc2c(c1)C(NC(=O)c1cc3ccccc3s1)C(O)C2` (stereo not drawn) [Compound 69] to `CN(C)C=Nc1ccc2c(c1)C(NC(=O)c1cccc3ccccc13)C(O)C2` (stereo not drawn) [Compound 71], the “% Maximum Stimulation Compared to Oxotremorine-M” value rises from 14% to 95%.

Compared with `CN(C)C=Nc1ccc2c(c1)C(NS(=O)(=O)c1ccc(Cl)c(Cl)c1)C(O)C2` (stereo not drawn) [Compound 72], `CC(=Nc1ccc2c(c1)C(NC(=O)c1ccc(Cl)c(Cl)c1)C(O)C2)N(C)C` (stereo not drawn) [Compound 76] is higher in “% Maximum Stimulation Compared to Oxotremorine-M” value: 4% for the first, 130% for the second.

First: O=C(NC1c2cc(N=CN3CCCCC3)ccc2CC1O)c1ccc(Cl)c(Cl)c1 (stereo not drawn) [Compound 77]
Second: O=C(NC1c2cc(N=CN3CCCCC3)ccc2CC1O)c1cc(Cl)cc(Cl)c1 (stereo not drawn) [Compound 97]
The “% Maximum Stimulation Compared to Oxotremorine-M” value of the first is higher: 214% for the first, 36% for the second.

With `O=C(NC1c2cc(N=CN3CCCCC3)ccc2CC1O)c1cc(F)cc(F)c1` (stereo not drawn) [Compound 98] the “% Maximum Stimulation Compared to Oxotremorine-M” value was 73%.

Target: muscarinic receptor
Experiment: not given
Conditions: first of three sites (high affinity); read-out: affinity of site labeled by 3H-Oxo; cited from earlier work

For `C[N+](C)(C)CC#CCN1CCCC1=O` [^3H-Oxo, ^3H-Oxotremorine-M], the Kd is given as 1.8 nM.

Same assay, conditions: second of three sites (medium affinity); read-out: affinity of site labeled by 3H-Oxo; cited from earlier work

For `C[N+](C)(C)CC#CCN1CCCC1=O` [^3H-Oxo, ^3H-Oxotremorine-M], the Kd is given as 20 nM.

Same assay, conditions: third of three sites (low affinity); read-out: affinity of site labeled by 3H-Oxo; cited from earlier work

In the case of `C[N+](C)(C)CC#CCN1CCCC1=O` [^3H-Oxo, ^3H-Oxotremorine-M], the Kd is given as 3000 nM.
